Experimental data published in patent US12258327B2, “5-membered heteroaryl-containing aminopyridine compounds as EGFR inhibitors” (YUHAN CORPORATION, priority 2021, dated 2025).
pIC50: −log10 of the molar value. Read-outs that look alike come from different tables or passages of the source.

Experiments:
EGFR L858R/T790M/C797S = EGFR L858R/T790M/C797S (Homo sapiens, UniProt P00533, C797S/L858R/T790M); test: Biochemical EGFR kinase assay (Lance Ultra TR-FRET), triple mutant L858R/T790M/C797S; conditions: Km ATP; for IC50: read-out: IC50 L858R/T790M/C797S (nM) Km ATP; for pIC50: read-out: IC50 L858R/T790M/C797S, Km ATP
Chain of EGFR L858R/T790M/C797S (P00533 25-1210 T790M/C797S/L858R): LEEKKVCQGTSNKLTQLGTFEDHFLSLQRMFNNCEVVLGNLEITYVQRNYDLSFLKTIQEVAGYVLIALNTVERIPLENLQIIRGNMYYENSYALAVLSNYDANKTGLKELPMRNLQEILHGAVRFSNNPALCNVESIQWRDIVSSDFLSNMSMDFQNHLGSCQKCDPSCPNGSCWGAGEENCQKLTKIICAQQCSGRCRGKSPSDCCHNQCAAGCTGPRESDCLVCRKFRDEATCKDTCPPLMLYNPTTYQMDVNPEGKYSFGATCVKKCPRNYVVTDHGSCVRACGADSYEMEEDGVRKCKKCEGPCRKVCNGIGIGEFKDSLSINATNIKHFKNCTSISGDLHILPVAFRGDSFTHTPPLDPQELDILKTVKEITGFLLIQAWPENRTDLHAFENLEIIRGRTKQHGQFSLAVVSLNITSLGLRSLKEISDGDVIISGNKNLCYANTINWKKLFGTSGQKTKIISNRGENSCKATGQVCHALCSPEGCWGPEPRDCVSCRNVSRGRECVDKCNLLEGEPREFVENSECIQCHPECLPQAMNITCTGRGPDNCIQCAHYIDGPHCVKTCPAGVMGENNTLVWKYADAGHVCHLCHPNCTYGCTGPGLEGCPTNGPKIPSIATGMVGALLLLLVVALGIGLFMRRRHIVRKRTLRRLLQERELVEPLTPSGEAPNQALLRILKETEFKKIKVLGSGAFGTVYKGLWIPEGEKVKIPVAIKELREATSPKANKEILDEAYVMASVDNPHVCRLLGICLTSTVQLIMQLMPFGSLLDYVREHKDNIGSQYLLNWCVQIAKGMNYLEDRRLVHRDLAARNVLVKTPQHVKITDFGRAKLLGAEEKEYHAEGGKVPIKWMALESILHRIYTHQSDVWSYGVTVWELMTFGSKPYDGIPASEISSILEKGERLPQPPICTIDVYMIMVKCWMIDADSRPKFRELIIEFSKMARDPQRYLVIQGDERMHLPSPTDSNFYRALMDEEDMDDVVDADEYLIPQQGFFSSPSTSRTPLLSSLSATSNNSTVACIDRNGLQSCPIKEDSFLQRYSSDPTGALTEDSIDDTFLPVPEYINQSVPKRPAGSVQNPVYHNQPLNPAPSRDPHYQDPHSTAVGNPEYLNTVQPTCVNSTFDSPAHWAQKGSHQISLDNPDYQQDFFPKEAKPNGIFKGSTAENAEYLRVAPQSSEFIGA
Procedure, shortened: (§1)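 Step 1: compound in kinase buffer, 0.003–10 μM. Step 2: kinase reaction 1 h at room temperature. Step 4: TR-FRET read at 615/665 nm; IC50 calculated.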

EGFR del19/T790M/C797S = EGFR del19/T790M/C797S (Homo sapiens, UniProt P00533, C797S/DEL746-750/T790M); test: Biochemical EGFR kinase assay (Lance Ultra TR-FRET), triple mutant del19/T790M/C797S; conditions: Km ATP; for IC50: read-out: IC50 del19/T790M/C797S (nM) Km ATP; for pIC50: read-out: IC50 del19/T790M/C797S, Km ATP
Chain of EGFR del19/T790M/C797S (P00533 with tags, fused parts or gaps DEL746-750/T790M/C797S): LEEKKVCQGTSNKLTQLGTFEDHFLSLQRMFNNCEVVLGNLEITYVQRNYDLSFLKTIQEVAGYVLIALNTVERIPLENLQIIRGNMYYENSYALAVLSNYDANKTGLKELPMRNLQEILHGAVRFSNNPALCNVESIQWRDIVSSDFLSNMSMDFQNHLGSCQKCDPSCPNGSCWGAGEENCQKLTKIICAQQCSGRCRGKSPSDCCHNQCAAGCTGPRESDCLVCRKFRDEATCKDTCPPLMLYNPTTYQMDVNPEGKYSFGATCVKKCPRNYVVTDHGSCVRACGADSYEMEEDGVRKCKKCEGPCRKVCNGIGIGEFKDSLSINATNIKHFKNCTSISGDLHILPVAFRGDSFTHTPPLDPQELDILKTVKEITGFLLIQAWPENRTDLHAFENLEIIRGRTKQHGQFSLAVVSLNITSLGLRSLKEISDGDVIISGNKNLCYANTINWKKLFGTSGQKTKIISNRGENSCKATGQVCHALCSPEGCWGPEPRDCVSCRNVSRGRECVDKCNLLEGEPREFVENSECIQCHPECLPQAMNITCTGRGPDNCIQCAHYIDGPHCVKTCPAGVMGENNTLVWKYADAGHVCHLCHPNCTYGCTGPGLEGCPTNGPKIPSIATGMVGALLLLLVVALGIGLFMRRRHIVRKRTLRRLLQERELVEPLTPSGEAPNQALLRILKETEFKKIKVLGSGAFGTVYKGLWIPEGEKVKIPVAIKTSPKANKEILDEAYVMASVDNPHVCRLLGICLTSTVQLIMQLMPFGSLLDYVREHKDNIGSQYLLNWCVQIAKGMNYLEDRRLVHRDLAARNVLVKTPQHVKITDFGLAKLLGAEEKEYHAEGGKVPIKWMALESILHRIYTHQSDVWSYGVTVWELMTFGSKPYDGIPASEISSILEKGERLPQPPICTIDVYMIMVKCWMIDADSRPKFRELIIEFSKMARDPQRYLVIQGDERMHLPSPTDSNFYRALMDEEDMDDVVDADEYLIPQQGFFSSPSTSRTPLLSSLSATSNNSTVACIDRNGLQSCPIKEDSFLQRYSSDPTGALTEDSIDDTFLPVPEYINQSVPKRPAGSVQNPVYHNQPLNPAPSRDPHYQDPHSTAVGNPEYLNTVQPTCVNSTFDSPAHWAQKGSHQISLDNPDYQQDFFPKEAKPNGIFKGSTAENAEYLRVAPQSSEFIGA
Procedure, shortened: as §1

EGFR del19/C797S = EGFR del19/C797S (Homo sapiens, UniProt P00533, C797S/DEL746-750); test: Biochemical EGFR kinase assay (Lance Ultra TR-FRET), double mutant del19/C797S; conditions: Km ATP; for IC50: read-out: IC50 del19/C797S (nM) Km ATP; for pIC50: read-out: IC50 del19/C797S, Km ATP
Chain of EGFR del19/C797S (P00533 with tags, fused parts or gaps DEL746-750/C797S): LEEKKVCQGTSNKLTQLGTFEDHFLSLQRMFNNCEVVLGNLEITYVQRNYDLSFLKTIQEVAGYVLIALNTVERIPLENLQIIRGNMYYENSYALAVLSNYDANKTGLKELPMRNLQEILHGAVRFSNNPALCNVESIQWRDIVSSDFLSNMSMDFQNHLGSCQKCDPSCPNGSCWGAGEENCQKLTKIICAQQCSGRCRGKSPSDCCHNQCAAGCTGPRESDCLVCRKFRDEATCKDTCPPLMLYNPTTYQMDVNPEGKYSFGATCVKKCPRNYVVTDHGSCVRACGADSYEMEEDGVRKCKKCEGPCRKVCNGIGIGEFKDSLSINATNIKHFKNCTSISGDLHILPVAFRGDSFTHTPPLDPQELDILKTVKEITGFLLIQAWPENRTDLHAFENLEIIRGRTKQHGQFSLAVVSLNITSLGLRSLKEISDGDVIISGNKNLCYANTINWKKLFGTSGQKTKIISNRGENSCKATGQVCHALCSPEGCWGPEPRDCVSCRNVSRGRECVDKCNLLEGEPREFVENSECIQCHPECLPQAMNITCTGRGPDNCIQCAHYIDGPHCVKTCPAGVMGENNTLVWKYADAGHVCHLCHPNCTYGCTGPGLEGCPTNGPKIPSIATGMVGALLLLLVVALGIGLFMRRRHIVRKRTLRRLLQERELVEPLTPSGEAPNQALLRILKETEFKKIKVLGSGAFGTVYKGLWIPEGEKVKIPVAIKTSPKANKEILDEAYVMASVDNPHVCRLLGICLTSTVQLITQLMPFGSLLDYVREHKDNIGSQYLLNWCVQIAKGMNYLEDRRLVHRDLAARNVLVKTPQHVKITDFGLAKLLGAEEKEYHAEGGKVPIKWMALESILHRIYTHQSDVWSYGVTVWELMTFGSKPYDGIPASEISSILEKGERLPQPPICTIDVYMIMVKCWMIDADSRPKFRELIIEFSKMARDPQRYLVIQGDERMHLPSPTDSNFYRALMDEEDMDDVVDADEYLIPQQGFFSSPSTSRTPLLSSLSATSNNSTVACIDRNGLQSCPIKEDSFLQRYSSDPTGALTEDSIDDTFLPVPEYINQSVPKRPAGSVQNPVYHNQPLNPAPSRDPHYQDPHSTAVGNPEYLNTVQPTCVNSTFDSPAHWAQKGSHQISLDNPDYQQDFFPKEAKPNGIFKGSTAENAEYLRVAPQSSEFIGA
Procedure, shortened: as §1

EGFR L858R/C797S = EGFR L858R/C797S (Homo sapiens, UniProt P00533, C797S/L858R); test: Biochemical EGFR kinase assay (Lance Ultra TR-FRET), double mutant L858R/C797S; conditions: Km ATP; for IC50: read-out: IC50 L858R/C797S (nM) Km ATP; for pIC50: read-out: IC50 L858R/C797S, Km ATP
Chain of EGFR L858R/C797S (P00533 25-1210 C797S/L858R): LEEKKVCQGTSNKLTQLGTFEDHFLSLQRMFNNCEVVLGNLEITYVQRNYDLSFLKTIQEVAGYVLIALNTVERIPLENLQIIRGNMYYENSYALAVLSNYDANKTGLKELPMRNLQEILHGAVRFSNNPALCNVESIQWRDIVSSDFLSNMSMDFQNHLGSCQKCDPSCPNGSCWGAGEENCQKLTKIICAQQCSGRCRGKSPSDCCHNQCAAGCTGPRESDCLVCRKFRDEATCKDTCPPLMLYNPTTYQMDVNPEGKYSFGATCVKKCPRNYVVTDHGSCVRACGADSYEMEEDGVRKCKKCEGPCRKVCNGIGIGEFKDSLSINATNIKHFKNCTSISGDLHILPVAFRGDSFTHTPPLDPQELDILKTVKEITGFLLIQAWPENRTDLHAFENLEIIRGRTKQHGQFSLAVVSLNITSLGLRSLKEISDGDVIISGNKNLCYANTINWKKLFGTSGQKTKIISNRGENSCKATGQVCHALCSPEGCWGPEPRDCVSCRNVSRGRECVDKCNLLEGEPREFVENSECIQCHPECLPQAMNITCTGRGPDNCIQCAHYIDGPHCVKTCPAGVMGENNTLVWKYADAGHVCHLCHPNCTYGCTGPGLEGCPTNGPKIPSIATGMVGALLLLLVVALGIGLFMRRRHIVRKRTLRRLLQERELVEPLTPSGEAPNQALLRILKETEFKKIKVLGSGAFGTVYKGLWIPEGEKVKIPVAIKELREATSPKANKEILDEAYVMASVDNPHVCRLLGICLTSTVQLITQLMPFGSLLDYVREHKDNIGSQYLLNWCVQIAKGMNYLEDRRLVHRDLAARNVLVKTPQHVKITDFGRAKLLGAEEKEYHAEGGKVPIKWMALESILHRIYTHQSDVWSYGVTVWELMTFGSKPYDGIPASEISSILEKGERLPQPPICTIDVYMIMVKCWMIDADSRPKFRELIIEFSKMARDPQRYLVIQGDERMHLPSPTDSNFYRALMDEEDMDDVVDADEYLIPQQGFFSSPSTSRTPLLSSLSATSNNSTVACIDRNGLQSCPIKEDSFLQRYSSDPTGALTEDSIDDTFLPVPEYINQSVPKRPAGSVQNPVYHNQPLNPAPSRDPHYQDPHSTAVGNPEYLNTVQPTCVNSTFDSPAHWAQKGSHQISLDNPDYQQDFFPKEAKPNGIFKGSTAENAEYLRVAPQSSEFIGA
Procedure, shortened: as §1

EGFR wildtype (WT) = EGFR wildtype (WT) (Homo sapiens, UniProt P00533); test: Biochemical EGFR kinase assay (Lance Ultra TR-FRET), wildtype; conditions: Km ATP; for IC50: read-out: IC50 WT (nM) Km ATP; for pIC50: read-out: IC50 WT, Km ATP
Procedure, shortened: as §1

Row | SMILES | IC50 (EGFR L858R/T790M/C797S) [nM] | IC50 (EGFR del19/T790M/C797S) [nM] | IC50 (EGFR del19/C797S) [nM] | IC50 (EGFR L858R/C797S) [nM] | IC50 (EGFR wildtype (WT)) [nM] | pIC50 (EGFR L858R/T790M/C797S) | pIC50 (EGFR del19/T790M/C797S) | pIC50 (EGFR del19/C797S) | pIC50 (EGFR L858R/C797S) | pIC50 (EGFR wildtype (WT))
1 | CC(C)Nc1cc(Nc2ccnc(-c3cnn(S(=O)(=O)C4CC4)c3)n2)ncc1-c1ccn(C(F)F)n1 [Example 144, N^2-(2-(1-(Cyclopropylsulfonyl)-1H-pyrazol-4-yl)pyrimidin-4-yl)-5-(1-(difluoromethyl)-1H-pyrazol-3-yl)-N^4-isopropylpyridine-2,4-diamine] | 0.7 | 1.2 | 24 | 12.5 | 687 | – | – | – | – | –
2 | O=S(=O)(C1CC1)n1cc(-c2nccc(Nc3cc(N[C@H]4CC[C@@H](F)CC4)c(-c4ccn(C(F)F)n4)cn3)n2)cn1 [Example 151, N^2-(2-(1-(Cyclopropylsulfonyl)-1H-pyrazol-4-yl)pyrimidin-4-yl)-5-(1-(difluoromethyl)-1H-pyrazol-3-yl)-N^4-((1s,4s)-4-fluorocyclohexyl)pyridine-2,4-diamine] | 0.9 | 1.6 | 43.5 | 4.7 | 72 | – | – | – | – | –
3 | O=S(=O)(C1CC1)n1cc(-c2nccc(Nc3cc(N[C@H]4CC[C@@H](F)CC4)c(-c4nc(C(F)F)cs4)cn3)n2)cn1 [Example 164, N^2-(2-(1-(Cyclopropylsulfonyl)-1H-pyrazol-4-yl)pyrimidin-4-yl)-5-(4-(difluoromethyl)thiazol-2-yl)-N^4-((1s,4s)-4-fluorocyclohexyl)pyridine-2,4-diamine] | 4.8 | 8.8 | 370 | 135 | 1210 | – | – | – | – | –
4 | COc1ccc(-c2nccc(Nc3cc(N[C@H]4CC[C@@](C)(O)CC4)c(-c4ccn(C(F)F)n4)cn3)n2)c(F)n1 [Example 166, (1s,4s)-4-((5-(1-(Difluoromethyl)-1H-pyrazol-3-yl)-2-((2-(2-fluoro-6-methoxypyridin-3-yl)pyrimidin-4-yl)amino)pyridin-4-yl)amino)-1-methylcyclohexan-1-ol] | 3.6 | 7.2 | 737 | 198 | 503 | – | – | – | – | –
5 | Cc1nn(CC(F)(F)F)cc1-c1cc(Nc2ncc(-c3cc(C(F)(F)F)n(C)n3)c(N[C@H]3CC[C@@](C)(O)CC3)n2)ccn1 [Example 369, (1s,4s)-1-Methyl-4-((2-((2-(3-methyl-1-(2,2,2-trifluoroethyl)-1H-pyrazol-4-yl)pyridin-4-yl)amino)-5-(1-methyl-5-(trifluoromethyl)-1H-pyrazol-3-yl)pyrimidin-4-yl)amino)cyclohexan-1-ol] | – | – | – | – | – | 9.00 | 8.51 | 8.09 | 8.00 | 7.14
6 | Cc1nn(CC(F)(F)F)cc1-c1cc(Nc2ncc(-c3ccn(C(F)F)n3)c(N[C@H]3CC[C@@](C)(O)CC3)n2)ccn1 [Example 368, (1s,4s)-4-((5-(1-(Difluoromethyl)-1H-pyrazol-3-yl)-2-((2-(3-methyl-1-(2,2,2-trifluoroethyl)-1H-pyrazol-4-yl)pyridin-4-yl)amino)pyrimidin-4-yl)amino)-1-methylcyclohexan-1-ol] | – | – | – | – | – | 9.05 | 8.72 | 7.90 | 7.97 | 7.47
7 | CN(C)C[C@H]1C[C@H](CNc2cc(Nc3ccnc(-c4cnn(S(=O)(=O)C5CC5)c4)n3)ncc2-c2ccn(CC(F)F)n2)C1 [Example 249, N^2-(2-(1-(Cyclopropylsulfonyl)-1H-pyrazol-4-yl)pyrimidin-4-yl)-5-(1-(2,2-difluoroethyl)-1H-pyrazol-3-yl)-N^4-(((1r,3r)-3-((dimethylamino)methyl)cyclobutyl)methyl)pyridine-2,4-diamine] | 0.1 | 0.4 | 11.5 | 6.1 | 7.5 | – | – | – | – | –
8 | O=S(=O)(C1CC1)n1cc(-c2nccc(Nc3cc(N[C@H]4CC[C@@H](F)CC4)c(-c4ccn(CC(F)(F)F)n4)cn3)n2)cn1 [Example 305, N^2-(2-(1-(Cyclopropylsulfonyl)-1H-pyrazol-4-yl)pyrimidin-4-yl)-N^4-((1s,4s)-4-fluorocyclohexyl)-5-(1-(2,2,2-trifluoroethyl)-1H-pyrazol-3-yl)pyridine-2,4-diamine] | 5.3 | 8 | 67.7 | 12 | 853 | – | – | – | – | –
